# In patent publication US20070213402A1, “Compounds which interact with the thyroid hormone receptor for the treatment of fibrotic disease” (priority 1998, published 2007):
# Experiments:
# [1] = tested on: collagenase (MMP-1) promoter; experiment: Experiment 4.1: collagenase (MMP-1) promoter (-517/+63)-luciferase in MCF-7 cells, endogenous thyroid hormone receptors; assay type: cell-based, human; settings: MCF-7, endogenous thyroid hormone receptors; for % Control: Blank = 100
# Procedure: These experiments were intended to identify the receptor through which compounds I might be acting to block collagenase promoter activity.
# Transfection procedure hereinbefore described with CV1 cells was repeated using MCF-7 mammary breast cancer cells derived from pleural effusion from a breast cancer patient. Additionally, each experiment included transfection of a plasmid (at 8 ug per 5×10^5 cells) containing the −517/+63 section of the collagenase (MMP-1) promoter linked to the luciferase gene. TPA was used as above to stimulate activity of the collagenase promoter resulting in luciferase production. Compound II or 3,3,5-triiodo-L-thyronine (T3) was included (both at 10^−8M), the latter being a known ligand for the thyroid hormone receptor.
# Experiment 4.1. As MCF-7 cells express endogenous thyroid hormone receptors, only the collagenase promoter plasmid (at 8 ug per 5×10^5 cells) was transfected into the MCF-7 cells.
# c-jun = experiment: Experiment 5: immunoblot of phosphorylated (serine 73) c-jun in rheumatoid fibroblasts; assay type: cell-based, human; settings: 36 hours, 10 ng/ml TPA plus 5×10^-7M substance, compared to TPA alone (lane 1)
# Procedure: Rheumatoid fibroblasts were cultured from synovium obtained from the knee joint of a patient with rheumatoid arthritis. Cells were cultured in monolayer with DMEM tissue culture medium (Gibco) with the inclusion of 5% v/v charcoal stripped serum in 75 cm^2 flasks. The cells were treated for 36 hours with the addition of 10 ng/ml TPA (phorbol ester) plus 5×10^−7M thyroid hormone, Compound II or Compound III. TPA and drugs were added at time zero and at 30 hours, the TPA addition ensured phosphorylation of c-jun.
# After 36 hours, cells were lysed in phosphate buffered saline (PBS) containing protease inhibitors and 0.1% Triton-X-100, and then boiled for 5 minutes in non-reducing gel loading buffer. Samples of cell lysate corresponding to equal cell number were loaded onto a 12.5% SDS polyacrylamide gel, and electrophoresis using a Bio-Rad™, (Bio-Rad Laboratories, California USA) Mini Protean II cell was performed at approximately 100V for one hour.
# Transfer of proteins to nitrocellulose membrane was performed using a Bio-Rad Mini Trans-Blot transfer cell.
# Immunoblotting was performed using polyclonal rabbit anti-human phosphorylation specific (set 73) c-jun (cat. No 06659, Upstate Biotechnology), or MMP-1 (cat. No. RDI-MMP1Habr, Research Diagnostics) antibodies diluted 1:1000 in Tris buffered saline+3% fat free milk powder. […]
# collagenase I promoter = experiment: Experiment 1: collagenase I promoter (-73/+63)-luciferase in CV1 cells transfected with GR1 (glucocorticoid receptor); assay type: cell-based, African Green Monkey; settings: for % control (GR1): Blank = 100
# From the text: Two plasmid constructs were introduced by standard calcium phosphate precipitation of DNA followed by glycerol shock (Ausubel F M, Brent R, Kingston D D, Moore J G et al Current protocols in molecular biology 1994 Greene Publishing Associates/Wiley-Interscience, New York, N.Y.) using a transformed African Green Monkey kidney cell line (CV1) (Schneikert J, Peterziel H, Defossez P-A, Klocker H, de Launoit Y and Cato A C B Androgen receptor-Ets protein interaction is a novel mechanism for steroid hormone-mediated down-modulation of matrix metalloproteinase expression, Journal of Biological Chemistry. Vol 271(39) (pp 23907-23913), 1996).
# Accordingly, the following two plasmids were included into CV1 cells described above — • (a) Either of GR1 or pSG5ARF containing glucocorticoid or androgen receptor (AR) respectively, both at 2 ug per 5×10^5 cells, driven by the Rous sarcoma virus promoter, and • (b) a plasmid containing the −73/+63 portion of the collagenase I promoter linked to luciferase gene at 8 ug per 5×10^5 cells.
# CPII was compound II above, clobuzarit.
# [2] = substance 10^-8M added with TPA
# [3] = substance added with TPA 75 ng/ml, Dex 10^-7M
structure (smiles),measurement,setting,value
"CC(C)(OCc1ccc(-c2ccc(Cl)cc2)cc1)C(=O)O [Compound II, 1-[4-(4-chlorophenyl)benzyloxy]-1-methylpropionic acid]","effect on TPA stimulation of luciferase production, in words",[1],able further to enhance TPA stimulation of luciferase production
same,Raw Counts,[1]; [2],352376 counts
same,% Control,[1]; [2],2802.2%
same,% Control,[1]; substance added alone,47.9%
same,Raw Counts,"[1]; substance added alone, CPII 10^-8M",6029 counts
same,"amount of phosphorylation of c-jun (serine 73), band intensity",c-jun,lower intensity
same,% control (GR1),collagenase I promoter; substance added alone,48%
same,Raw counts (GR1),"collagenase I promoter; substance added alone, TPA 75 ng/ml",6151 counts
same,Raw counts (GR1),collagenase I promoter; [3],39968 counts
same,% control (GR1),collagenase I promoter; [3],311%
same,"collagenase I activation, in words (GR1)","collagenase I promoter; TPA-stimulated, glucocorticoid receptor",able to down regulate collagenase I activation
